In EPA's ToxRefDB 2:

Experiments:
mouse [1] = conditions: Carcinogenicity; cd1; Oral; Feed; dose end: 78 week; group: systemic; systemic / organ weight / spleen / nos
rat [2] = conditions: Combined chronic toxicity/carcinogenicity, Oral, Feed, dose end: 104 week, group: systemic
mouse [3] = conditions: Subchronic oral toxicity in rodents, cd1, Feed, dose end: 90 day, group: systemic, systemic / in life observation / body weight / body weight + systemic / in life observation / body weight / body weight gain
rat [4] = conditions: Multigenerational reproductive toxicity study, wistar, Oral, Feed, dose end: 2 generation
dog [5] = conditions: Subchronic oral toxicity in nonrodent, beagle, Feed, dose end: 13 week, group: systemic
dog [6] = conditions: Chronic toxicity, beagle, Oral, [Not Specified], dose end: 52 week, group: systemic
rat [7] = conditions: Subchronic oral toxicity in rodents, sprague dawley, Feed, dose end: 13 week, group: systemic
mouse [8] = conditions: Subchronic oral toxicity in rodents, cd1, Feed, dose end: 13 week, group: systemic
rat [9] = conditions: Multigenerational reproductive toxicity study, sprague dawley, Oral, Feed, dose end: 2 generation
rat [10] = conditions: Subchronic oral toxicity in rodents, sprague dawley, Feed, dose end: 90 day, group: systemic
dog [11] = conditions: Subchronic oral toxicity in nonrodent, beagle, Feed, dose end: 90 day, group: systemic
rat [12] = conditions: Combined chronic toxicity/carcinogenicity, sprague dawley, Oral, Feed, dose end: 24 month, group: systemic
dog [13] = conditions: Subchronic oral toxicity in nonrodent, beagle, Feed, dose end: 13 week, group: systemic; remark: listed apart in the source
dog [14] = conditions: Sub-acute repeat dose toxicity, beagle, Oral, Gavage/Intubation, dose end: 28 day, group: systemic
primate [15] = conditions: Sub-acute repeat dose toxicity, Oral, Gavage/Intubation, dose end: 14 day, group: systemic
rabbit = conditions: Sub-acute repeat dose toxicity, Oral, Gavage/Intubation, dose end: 13 day
rat [16] = conditions: Sub-acute repeat dose toxicity, wistar, Oral, Gavage/Intubation, dose end: 28 day, group: systemic
rat [17] = conditions: Sub-acute repeat dose toxicity, wistar, Oral, Gavage/Intubation, dose end: 14 day, group: systemic
rat [18] = conditions: Sub-acute repeat dose toxicity, wistar, Oral, Gavage/Intubation, dose end: 14 day, group: systemic; remark: listed apart in the source
rat [19] = conditions: Sub-acute repeat dose toxicity; wistar; Oral; Gavage/Intubation; dose end: 14 day; group: systemic; systemic / in life observation / clinical signs / abnormal feces + systemic / in life observation / clinical signs / erythema + systemic / …
primate [20] = conditions: Sub-acute repeat dose toxicity, Oral, Gavage/Intubation, dose end: 28 day, group: systemic
primate [21] = conditions: Sub-acute repeat dose toxicity; Oral; Gavage/Intubation; dose end: 5 day; group: systemic; systemic / clinical chemistry / [other] / [other] + systemic / clinical chemistry / plasma renin activity / plasma renin activity + systemic…
rat [22] = conditions: Subchronic oral toxicity in rodents, Sprague-Dawley, Feed, dose end: 90 day, group: systemic, systemic / in life observation / body weight / body weight gain
dog [23] = conditions: Subchronic oral toxicity in nonrodent, beagle, Capsule, dose end: 13 week, group: systemic
[24] = group: offspring, systemic / in life observation / clinical signs / grip strength
[25] = group: offspring, systemic / in life observation / clinical signs / grip strength + systemic / in life observation / body weight / offspring (pup) weight + …
[26] = group: parental, systemic / in life observation / body weight / body weight gain + systemic / in life observation / food consumption / food consumption + …
[27] = group: reproductive, reproductive / reproductive performance / estrous cycle / length
[28] = systemic / in life observation / body weight / body weight + systemic / in life observation / body weight / body weight gain
[29] = systemic / in life observation / body weight / body weight + systemic / in life observation / body weight / body weight gain + systemic / …
[30] = systemic / organ weight / thymus / nos
[31] = systemic / organ weight / thymus / nos + systemic / hematology / platelet / platelet + systemic / organ weight / testes / nos
[32] = systemic / pathology microscopic / adrenal gland / vacuolization + systemic / clinical chemistry / cholesterol / cholesterol + systemic / …
[33] = systemic / in life observation / body weight / body weight gain + systemic / in life observation / body weight / body weight + systemic / in…
[34] = group: offspring, systemic / in life observation / clinical signs / reduced body size
[35] = group: parental, systemic / in life observation / food consumption / food consumption
[36] = group: parental, systemic / in life observation / food consumption / food consumption + systemic / in life observation / body weight / body weight + systemic…
[37] = group: reproductive, reproductive / offspring survival early / litter size / litter size
[38] = systemic / in life observation / body weight / body weight + systemic / in life observation / body weight / body weight gain + systemic / in…
[39] = systemic / organ weight / heart / relative to body weight
[40] = systemic / in life observation / body weight / body weight gain + systemic / in life observation / food consumption / food efficiency
[41] = systemic / in life observation / body weight / body weight gain + systemic / in life observation / food consumption / food efficiency + …
[42] = systemic / in life observation / body weight / body weight gain + systemic / in life observation / food consumption / food consumption + …
[43] = systemic / in life observation / food consumption / food consumption + systemic / in life observation / body weight / body weight gain
[44] = systemic / clinical chemistry / alanine aminotransferase (alt/sgpt) / alanine aminotransferase (alt/sgpt) + systemic / clinical chemistry / …
[45] = systemic / in life observation / body weight / body weight + systemic / pathology microscopic / kidney / atrophy + systemic / pathology …
[46] = systemic / clinical chemistry / [other] / [other] + systemic / clinical chemistry / creatinine / creatinine + systemic / in life observation…
[47] = systemic / in life observation / body weight / body weight gain + systemic / in life observation / clinical signs / abnormal feces + …
[48] = group: maternal, reproductive / reproductive performance / aborted / aborted + reproductive / reproductive performance / resorptions / resorptions
[49] = group: systemic, systemic / in life observation / body weight / body weight gain
[50] = group: systemic, systemic / in life observation / body weight / body weight gain + systemic / in life observation / body weight / body weight + systemic / in…
[51] = systemic / in life observation / clinical signs / nasal discharge + systemic / in life observation / clinical signs / urine staining - …
[52] = systemic / in life observation / clinical signs / abnormal feces + systemic / in life observation / clinical signs / salivation + systemic…
[53] = systemic / in life observation / clinical signs / abnormal feces + systemic / in life observation / clinical signs / body cold to touch + …
[54] = systemic / in life observation / clinical signs / body cold to touch + systemic / in life observation / clinical signs / dehydration + …
[55] = systemic / in life observation / clinical signs / abnormal feces + systemic / in life observation / clinical signs / dialated pupils + …
[56] = systemic / clinical chemistry / gamma glutamyl transferase (ggt) / gamma glutamyl transferase (ggt) + systemic / in life observation / …

## CNC(=N[N+](=O)[O-])NCC1CCOC1 (configuration not stated) [Dinotefuran]
Mouse [1]
  LEL: 3 mg/kg/day
  LOAEL: 3 mg/kg/day
  NEL: < 3 mg/kg/day
  NOAEL: < 3 mg/kg/day
Rat [2]; systemic / organ weight / uterus / relative to brain weight + systemic / organ weight / brain / relative to body weight + systemic / organ …
  NEL: 1330 mg/kg/day
Rat [2]; systemic / pathology microscopic / kidney / ulcer + systemic / pathology microscopic / kidney / dilatation
  LOAEL: 991 mg/kg/day
Rat [2]; systemic / pathology microscopic / kidney / ulcer + systemic / pathology microscopic / kidney / dilatation + systemic / pathology …
  NOAEL: 99.7 mg/kg/day
Mouse [3]
  LEL: 10600 mg/kg/day
  LOAEL: 10600 mg/kg/day
  NEL: 4440 mg/kg/day
  NOAEL: 4440 mg/kg/day
Rat [4]; [24]
  NEL: 269 mg/kg/day
  NOAEL: 269 mg/kg/day
Rat [4]; [25]
  LEL: 935 mg/kg/day
  LOAEL: 935 mg/kg/day
Rat [4]; [26]
  LEL: 822 mg/kg/day
  LOAEL: 822 mg/kg/day
  NEL: 241 mg/kg/day
  NOAEL: 241 mg/kg/day
Rat [4]; [27]
  LEL: 907 mg/kg/day
  LOAEL: 907 mg/kg/day
  NEL: 268 mg/kg/day
  NOAEL: 268 mg/kg/day
Dog [5]; [28]
  LOAEL: 58 mg/kg/day
  NOAEL: < 58 mg/kg/day
Dog [5]; [29]
  LEL: 58 mg/kg/day
  NEL: < 58 mg/kg/day
Dog [6]; [30]
  LOAEL: 20 mg/kg/day
  NOAEL: < 20 mg/kg/day
Dog [6]; [31]
  LEL: 20 mg/kg/day
  NEL: < 20 mg/kg/day
Rat [7]; systemic / pathology microscopic / adrenal gland / vacuolization
  LOAEL: 336 mg/kg/day
Rat [7]; [32]
  NEL: 34 mg/kg/day
  NOAEL: 34 mg/kg/day
Rat [7]; systemic / pathology microscopic / adrenal gland / vacuolization + systemic / organ weight / liver / relative to body weight
  LEL: 336 mg/kg/day

## O=C(Nc1ccccc1)Nc1ccnc(Cl)c1 [Forchlorfenuron]
Mouse [8]; systemic / in life observation / body weight / body weight gain
  LOAEL: 1290 mg/kg/day
Mouse [8]; [33]
  LEL: 1290 mg/kg/day
  NEL: 609 mg/kg/day
  NOAEL: 609 mg/kg/day
Rat [9]; group: offspring, systemic / in life observation / body weight / offspring (pup) weight + developmental / offspring survival late / lactation index / …
  NOAEL: 13 mg/kg/day
Rat [9]; group: offspring, systemic / in life observation / body weight / offspring (pup) weight + systemic / in life observation / clinical signs / reduced body size
  LOAEL: 168 mg/kg/day
Rat [9]; [34]
  LEL: 13 mg/kg/day
  NEL: < 13 mg/kg/day
Rat [9]; [35]
  LEL: 144 mg/kg/day
  LOAEL: 144 mg/kg/day
Rat [9]; [36]
  NEL: 11 mg/kg/day
  NOAEL: 11 mg/kg/day
Rat [9]; [37]
  LEL: 829 mg/kg/day
  LOAEL: 829 mg/kg/day
  NEL: 168 mg/kg/day
  NOAEL: 168 mg/kg/day
Rat [10]; [38]
  LOAEL: 428 mg/kg/day
  NOAEL: 84 mg/kg/day
Rat [10]; [39]
  LEL: 16 mg/kg/day
  NEL: < 16 mg/kg/day
Dog [11]; [40]
  LOAEL: 173 mg/kg/day
  NOAEL: < 173 mg/kg/day
Dog [11]; [41]
  LEL: 173 mg/kg/day
  NEL: < 173 mg/kg/day
Rat [12]; [29]
  LOAEL: 93 mg/kg/day
  NOAEL: 7 mg/kg/day
Rat [12]; systemic / pathology microscopic / kidney / dilatation + systemic / organ weight / adrenal gland / absolute + systemic / organ weight / …
  NEL: 518 mg/kg/day
Dog [13]; [42]
  LOAEL: 162 mg/kg/day
  NOAEL: 16.8 mg/kg/day
Dog [13]; [43]
  LEL: 1.8 mg/kg/day
  NEL: < 1.8 mg/kg/day

## Cc1cc(SC2=C(O)C[C@@](CCc3ccc(N)cc3)(C(C)C)OC2=O)c(C(C)(C)C)cc1CO [CI-1029]
Dog [14]; [44]
  LOAEL: > 500 mg/kg/day
  NOAEL: ≥ 500 mg/kg/day
Dog [14]; [45]
  LEL: 100 mg/kg/day
  NEL: < 100 mg/kg/day
Primate [15]; [46]
  LOAEL: > 1000 mg/kg/day
  NOAEL: ≥ 1000 mg/kg/day
Primate [15]; [47]
  LEL: 100 mg/kg/day
  NEL: < 100 mg/kg/day
rabbit; [48]
  LEL: 250 mg/kg/day
  LOAEL: > 500 mg/kg/day
  NEL: 100 mg/kg/day
  NOAEL: ≥ 500 mg/kg/day
rabbit; [49]
  LEL: 50 mg/kg/day
  NEL: < 50 mg/kg/day
rabbit; [50]
  LOAEL: > 500 mg/kg/day
  NOAEL: ≥ 500 mg/kg/day
Rat [16]; [51]
  LOAEL: > 1000 mg/kg/day
  NEL: 100 mg/kg/day
  NOAEL: ≥ 1000 mg/kg/day
Rat [16]; systemic / in life observation / clinical signs / urine staining - perineum + systemic / in life observation / body weight / body weight …
  LEL: 500 mg/kg/day
Rat [17]; [52]
  LOAEL: > 1000 mg/kg/day
  NEL: 250 mg/kg/day
  NOAEL: ≥ 1000 mg/kg/day
Rat [17]; systemic / in life observation / clinical signs / urine staining - perineum
  LEL: 500 mg/kg/day
Rat [18]; [53]
  LOAEL: > 5000 mg/kg/day
  NOAEL: ≥ 5000 mg/kg/day
Rat [18]; [54]
  LEL: 500 mg/kg/day
  NEL: < 500 mg/kg/day
Rat [19]
  LEL: 2500 mg/kg/day
  LOAEL: > 5000 mg/kg/day
  NEL: 1000 mg/kg/day
  NOAEL: ≥ 5000 mg/kg/day
Primate [20]; systemic / in life observation / body weight / body weight + systemic / in life observation / clinical signs / abnormal feces + systemic / …
  LEL: 500 mg/kg/day
Primate [20]; [55]
  LOAEL: > 750 mg/kg/day
  NOAEL: ≥ 750 mg/kg/day
Primate [21]
  LEL: 750 mg/kg/day
  LOAEL: > 750 mg/kg/day
  NEL: < 750 mg/kg/day
  NOAEL: ≥ 750 mg/kg/day

## CCc1cccc(C)c1N(C(=O)CS(=O)(=O)O)C(C)COC (configuration not stated) [Metolachlor ESA]
Rat [22]
  LEL: 1540 mg/kg/day
  LOAEL: > 1540 mg/kg/day
  NEL: 427 mg/kg/day
  NOAEL: ≥ 1540 mg/kg/day
Dog [23]; systemic / clinical chemistry / gamma glutamyl transferase (ggt) / gamma glutamyl transferase (ggt) + systemic / clinical chemistry / …
  LEL: 200 mg/kg/day
Dog [23]; [56]
  LOAEL: > 1000 mg/kg/day
  NOAEL: ≥ 1000 mg/kg/day
